According to PubChem BioAssay (NCI):
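Method: 48-hour compound exposure of cells in 96-well plates, five concentrations, linear interpolation of endpoints. TGI marks complete inhibition of growth.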

Columns and labels:
Experiment in all cases: NCI tumour cell line growth inhibition, 48 h
LOX IMVI melanoma = system: LOX IMVI melanoma
MOLT-4 leukemia = system: MOLT-4 leukemia
SK-OV-3 ovarian = system: SK-OV-3 ovarian
BT-549 breast = system: BT-549 breast
OVCAR-5 ovarian = system: OVCAR-5 ovarian
PC-3 prostate = system: PC-3 prostate
HS 578T breast = system: HS 578T breast
SN12C renal = system: SN12C renal
SNB-75 CNS = system: SNB-75 CNS
NCI-H460 lung = system: NCI-H460 lung

| Compound | TGI (LOX IMVI melanoma) [µM] | TGI (MOLT-4 leukemia) [µM] | TGI (SK-OV-3 ovarian) [µM] | TGI (BT-549 breast) [µM] | TGI (OVCAR-5 ovarian) [µM] | TGI (PC-3 prostate) [µM] | TGI (HS 578T breast) [µM] | TGI (SN12C renal) [µM] | TGI (SNB-75 CNS) [µM] | TGI (NCI-H460 lung) [µM] |
| --- | --- | --- | --- | --- | --- | --- | --- | --- | --- | --- |
| CC(C)CC1c2[nH]c3ccccc3c2C[C@H]2C(=O)NC(COC(C)(C)C)C(=O)N12 (stereo not given in full) | 34.7 | 57.9 | > 100 | 60.9 | 54.8 | 55.1 | 37 | 47.9 | – | – |
| Cc1ccc(S(=O)(=O)NC(=O)NS(=O)(=O)O)cc1 | > 100 | > 100 | > 100 | > 100 | > 100 | > 100 | > 100 | > 100 | > 100 | > 100 |
| O=C(CCCN1CCc2[nH]c3cc(F)ccc3c2C1)c1ccc(F)cc1 | 17.5 | 29 | – | – | 24.7 | 25.7 | 30 | 27.7 | 22.9 | 23.9 |
| CN1C(=O)[C@@]2(C=CC3(CC2)OCCO3)c2ccccc21 | > 50 | > 50 | > 50 | > 50 | > 50 | > 50 | – | > 50 | 49.5 | > 50 |
| CC(=O)Oc1ccc2c(c1)c1c(OC(C)=O)c3ccccc3c(OC(C)=O)c1n2Cc1cccc(C)c1 | – | > 100 | 53.5 | > 100 | > 100 | > 100 | 78.3 | > 100 | 41.6 | > 100 |
| CCC1(O)CN(CCOC)[C@H]2C[C@@H]1C(=O)c1[nH]c3ccccc3c12 (stereo not given in full) | > 100 | > 100 | – | > 100 | > 100 | > 100 | > 100 | > 100 | > 100 | > 100 |
| CSC1(SC)CCCCCCCCCCC1 | 36.4 | > 100 | > 100 | > 100 | > 100 | > 100 | > 100 | > 100 | – | > 100 |
| COc1ccc(C=O)cc1Oc1ccc(C[C@H]2c3c(cc(OC)c4c3Oc3cc5c(cc3O4)CCN(C)C5=O)CCN2C)cc1 | 21.8 | 21.7 | 17.5 | – | 34.8 | 17.5 | 21.7 | 43 | 14 | 16 |
| COC(=O)c1cc2c3c(c(C(C)=O)c(OC)c2[nH]1)NCC3 | > 50 | > 50 | > 50 | > 50 | > 50 | > 50 | > 50 | > 50 | > 50 | > 50 |
| C/C=C\C(CC(=O)O)CC(=O)NCCC1CN(S(=O)(=O)C(F)(F)F)c2ccccc21 (stereo not given) | > 100 | > 100 | > 100 | > 100 | > 100 | > 100 | > 100 | – | > 100 | > 100 |
| Cn1c(=O)c2[nH]c(N/N=C3/SCC(=O)N3Cc3ccccc3)nc2n(C)c1=O | – | > 100 | > 100 | > 100 | > 100 | > 100 | > 100 | > 100 | – | > 100 |
| CCOC(=O)C(Cc1c(-c2[nH]c3ccccc3c2CC(NC(=O)CNC(C)=O)C(=O)OCC)[nH]c2ccccc12)NC(=O)CNC(C)=O (stereo not given) | – | > 100 | > 100 | > 100 | > 100 | > 100 | > 100 | > 100 | 93.6 | > 100 |
| Cc1nn(C(=O)c2ccccc2O)c2c1C(c1ccc(O)cc1)SC(N)=N2 (stereo not given) | > 10 | > 10 | > 10 | > 10 | > 10 | > 10 | > 10 | > 10 | 8.56 | > 10 |
| CSc1nc2c(ncn2C2OCC(O)C(O)C2O)c(=O)[nH]1 (stereo not given) | > 100 | > 100 | > 100 | – | > 100 | – | – | > 100 | > 100 | > 100 |
| CCOc1cc(C=O)ccc1O | > 100 | > 100 | – | – | > 100 | > 100 | > 100 | > 100 | > 100 | > 100 |
| O=C(O)CCCc1nc2c(n1-c1ccccc1)C(=O)c1ccccc1C2=O | > 100 | > 100 | > 100 | – | > 100 | – | > 100 | > 100 | > 100 | > 100 |
| CSc1s[s+]c(SC)c1-c1ccccc1 | 52 | > 100 | 38 | 28.2 | 31.2 | 54.1 | 86.9 | 35 | – | > 100 |
| COc1ccc([C@@]23CCC(=O)C[C@@H]2N(C)CC3)cc1OC | > 100 | > 100 | > 100 | – | > 100 | > 100 | > 100 | – | > 100 | > 100 |
| N#Cc1nnc2c3c(-c4ccc(Cl)cc4)c(C#N)c(=O)[nH]c3nn2c1N | 8.01 | 14.1 | 18.2 | 10.3 | 65.4 | 24.5 | 10.8 | 6.37 | – | 52.6 |
| COc1ccc(S(=O)(=O)Nc2ccc(-c3csc(N4C(=O)/C(=C/C=C\c5ccccc5)N=C4c4ccccc4)n3)cc2)cc1Cl | 46.3 | > 100 | > 100 | – | > 100 | > 100 | 85.5 | > 100 | > 100 | > 100 |
| COc1cc2cc3c4c(cc(OC)c(OC)c4c2cc1OC)CCN3C(=O)OCCBr | > 100 | > 100 | > 100 | – | > 100 | – | – | > 100 | > 100 | > 100 |
| COC(=O)CCc1ccc2c(c1)CC1(C2)Cc2ccc(CCC(=O)OC)cc2C1 | 97.1 | > 100 | > 100 | – | > 100 | > 100 | > 100 | > 100 | > 100 | – |
